Data taken from ChEMBL document CHEMBL1201862, “PubChem BioAssay data set” (2004).
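Values below derive from 48-hour exposures of cells grown in 96-well plates, with endpoints linearly interpolated between the two concentrations bracketing the appropriate inhibition level. GI50 marks 50% less growth.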 Activity calls are given as the source filed them. No stated cut-off is given here; in the data, active = GI50 up to about 1.1 µM and inactive = higher.

Key:
Assay in all cases: NCI-60 cell line screen, 48 h
T47D = test system: T47D
KM-20L2 = test system: KM-20L2
DLD-1 = test system: DLD-1
LXFL 529 = test system: LXFL 529
XF498 = test system: XF498
DMS-114 = test system: DMS-114
DMS-273 = test system: DMS-273
HOP-18 = test system: HOP-18

O=C1N/C(=N\N=C\c2ccccc2)C2(CCCCC2)O1
GI50 (T47D): > 100 µM (inactive)

COc1ccc(/C(=N/NC(N)=O)C2(O)C(=O)Nc3ccc([N+](=O)[O-])cc32)cc1 (stereo not drawn)
GI50 (KM-20L2): 22.3 µM (inactive) | GI50 (DLD-1): 21.3 µM (inactive) | GI50 (LXFL 529): 18.3 µM (inactive) | GI50 (XF498): 16.5 µM (inactive) | GI50 (DMS-114): 19.7 µM (inactive) | GI50 (DMS-273): 18.3 µM (inactive)

COC(=O)/C=C1\C(=O)N(C(C)=O)c2ccc(Br)cc21
GI50 (T47D): 5.02 µM (inactive)

C=C1CC[C@@H]2[C@](C)(COC(=O)CCC(=O)OC)CCC[C@@]2(C)[C@@H]1CCC1=CC(=O)OC1
GI50 (T47D): 29.2 µM (inactive)

Cc1ccc([N+](=O)[O-])cc1S(=O)(=O)Nc1ccc(C2=NN(S(=O)(=O)c3cc([N+](=O)[O-])ccc3C)C(c3ccco3)C2)cc1 (stereo not drawn)
GI50 (T47D): 28.6 µM (inactive)

C=CCN(c1cc(OC)c2c(c1[N+](=O)[O-])C(C)(SC)C(=O)N2)S(C)(=O)=O (stereo not drawn)
GI50 (T47D): > 100 µM (inactive)

NC(=S)N/N=C1\CCCC1C(O)(C(F)(F)Cl)C(F)(F)Cl (stereo not drawn)
GI50 (T47D): > 10 µM (inactive)

O=C1C([N-]S(=O)(=O)c2ccccc2)=C([n+]2ccc(Cc3ccccc3)cc2)C(=O)c2ccccc21
GI50 (T47D): 3.46 µM (inactive)

S=c1[nH]nc(Cn2c3ccc(Br)cc3c3nc4ccccc4nc32)o1
GI50 (T47D): 47.3 µM (inactive)

CNC(=S)N/N=C(\C)c1ccc(OC)cc1O
GI50 (T47D): > 100 µM (inactive)

O=C1Nc2ccccc2/C1=C\c1c(Cl)[nH]c2ccccc12
GI50 (T47D): 24 µM (inactive)

CCN(CC)c1ccc2cc3ccc(N(CC)CC)cc3[o+]c2c1
GI50 (KM-20L2): 1.82 µM (inactive) | GI50 (DLD-1): 1.39 µM (inactive) | GI50 (LXFL 529): 0.457 µM (active) | GI50 (XF498): 1.23 µM (inactive) | GI50 (DMS-114): 0.687 µM (active) | GI50 (DMS-273): 1.12 µM (active)

CC12CC(c3ccccc3O1)C(C(=O)Nc1cccc(F)c1)C(=O)N2 (stereo not drawn)
GI50 (T47D): 25.2 µM (inactive)

Cn1c(CCC2(C)Cc3ccccc3C(=O)O2)cc2ccccc2c1=O (stereo not drawn)
GI50 (T47D): 24.3 µM (inactive)

CCOC(=O)c1cccc(NC(=O)CI)c1
GI50 (T47D): 1.39 µM (inactive)

CCOC(=O)Cn1c(=O)n(C)c(=O)c2[nH]cnc21
GI50 (DLD-1): > 100 µM (inactive) | GI50 (LXFL 529): > 100 µM (inactive) | GI50 (XF498): > 100 µM (inactive) | GI50 (DMS-114): > 100 µM (inactive) | GI50 (DMS-273): > 100 µM (inactive)

Clc1n[nH]c2ccccc12
GI50 (T47D): > 100 µM (inactive)

COCP1(=S)OC(C)CCN1C(C)C (stereo not drawn)
GI50 (T47D): > 100 µM (inactive)

O=C(NCCNCCO)N/N=C/c1ccc(Cl)cc1
GI50 (T47D): > 100 µM (inactive)

Cc1ccc(/C=C2\CCS(=O)(=O)c3ccccc3C2=O)cc1
GI50 (T47D): 16.1 µM (inactive)

COc1ccc(-c2c(/C=N/OCC(=O)O)c3sc4ccccc4n3c2/C=N/OCC(=O)O)cc1
GI50 (T47D): > 50 µM (inactive)

CSC(=O)c1sc(SC)[n+](-c2ccccc2)c1O
GI50 (T47D): 7.35 µM (inactive)

COc1cccc(Cc2c3cc(OC)ccc3cc[n+]2C)c1
GI50 (KM-20L2): 65.5 µM (inactive) | GI50 (DLD-1): > 100 µM (inactive) | GI50 (LXFL 529): 36.4 µM (inactive) | GI50 (XF498): 12.4 µM (inactive)

COC(=O)Nc1nc2cc(S(=O)(=O)N3CCOCC3)ccc2[nH]1
GI50 (T47D): > 100 µM (inactive)

CCCCCCCCCC(=O)NCCc1c[nH]c2ccc(OC)cc12
GI50 (T47D): 19.7 µM (inactive)

CC(C)=CCC[C@](C)(O[C@@H]1O[C@H](CO)[C@@H](O)[C@H](O)[C@H]1O)[C@H]1CC[C@]2(C)[C@@H]1[C@H](O)C[C@@H]1[C@@]3(C)CC[C@H](O)C(C)(C)[C@@H]3[C@@H](O[C@@H]3O[C@H](CO)[C@@H](O)[C@H](O)[C@H]3O)C[C@]12C [GINSENOSIDE RG1]
GI50 (T47D): > 100 µM (inactive)

Cc1ccc(N2C=Nn3c(nc4sc5c(c4c3=O)CCCC5)C2)cc1
GI50 (T47D): 43.3 µM (inactive)

C=C=C[P+](c1ccccc1)(c1ccccc1)c1ccccc1
GI50 (DLD-1): 5.61 µM (inactive) | GI50 (LXFL 529): 3.91 µM (inactive) | GI50 (HOP-18): 46.7 µM (inactive) | GI50 (DMS-114): 8.69 µM (inactive) | GI50 (DMS-273): 27.6 µM (inactive)

O=C1C[C@H](COCc2ccccc2)NC(=O)C[C@H](COCc2ccccc2)NC(=O)C[C@H](COCc2ccccc2)N1
GI50 (T47D): 62.2 µM (inactive)

COc1ccc(NC(=O)CC(=O)N2N=C(c3ccccc3)C(/N=N/c3ccc(S(=O)(=O)CCOS(=O)(=O)O)cc3)C2=O)cc1 (stereo not drawn)
GI50 (T47D): > 100 µM (inactive)

C=C1c2ccccc2Oc2nc3nc(N)c(C#N)c(N)c3c(N)c21
GI50 (T47D): 51.1 µM (inactive)

CN(C(=O)Cc1ccc(Cl)c(Cl)c1)[C@@H]1CCCC[C@H]1[N+]1(C)CC=CC1
GI50 (T47D): > 100 µM (inactive)

CCOC(=O)[C@H]1C[C@]23CN(C(=O)OC(C)(C)C)CC[C@H]2CCC2(SCCCS2)[C@@H]3N1C
GI50 (T47D): 25.8 µM (inactive)

CCOP(=O)(/C=C\n1cc(C)c(=O)[nH]c1=O)OCC
GI50 (T47D): > 100 µM (inactive)

c1ccc(-c2nnn(CCN3CCCCC3)n2)cc1
GI50 (T47D): > 100 µM (inactive)

CN(C)c1ccc(/C=C2\C[C@H]3[C@@H]4CC=C5C[C@@H](N6CCCC6)CC[C@]5(C)[C@H]4CC[C@]3(C)[C@H]2O)cc1
GI50 (T47D): 0.998 µM (active)

O=c1nc(NC(c2ccccc2)(c2ccccc2)c2ccccc2)ccn1CCO
GI50 (KM-20L2): > 100 µM (inactive) | GI50 (DLD-1): 39.6 µM (inactive) | GI50 (LXFL 529): 63.4 µM (inactive) | GI50 (HOP-18): > 100 µM (inactive) | GI50 (DMS-114): 52.7 µM (inactive)

Cn1c(=O)cc(Nc2ccc(N)cc2)[nH]c1=O
GI50 (T47D): > 100 µM (inactive)

O=P(Oc1ccccc1)(Oc1ccccc1)Oc1c[nH]c2ccccc12
GI50 (T47D): 8.91 µM (inactive)

NC1=NCC(CN2CCOCC2)O1 (stereo not drawn)
GI50 (T47D): > 100 µM (inactive)

Cc1cc(C)nc(NS(=O)(=O)c2ccc(Nc3c4ccccc4nc4c(C(=O)NCCO)cccc34)cc2)n1
GI50 (T47D): 25.9 µM (inactive)

CC12CCC(=O)N1[C@@H](c1ccccc1)[C@@H](c1ccccc1)O2 (stereo partly drawn)
GI50 (KM-20L2): > 100 µM (inactive) | GI50 (DLD-1): 44 µM (inactive) | GI50 (LXFL 529): > 100 µM (inactive) | GI50 (XF498): > 100 µM (inactive) | GI50 (DMS-114): > 100 µM (inactive)

O=C(CC(C(=O)c1cccs1)c1ccsc1)c1ccc(Cl)s1 (stereo not drawn)
GI50 (T47D): 44.3 µM (inactive)

O=C1CC(O)(c2ccccc2)C(c2ccccc2)=C1c1ccccc1 (stereo not drawn)
GI50 (KM-20L2): 41.8 µM (inactive) | GI50 (DLD-1): 44.2 µM (inactive) | GI50 (LXFL 529): 35.3 µM (inactive) | GI50 (XF498): 24.4 µM (inactive) | GI50 (DMS-114): 26.2 µM (inactive) | GI50 (DMS-273): 34.6 µM (inactive)

C/C=C(\NC(=O)C(CCCCN)NC(=O)C(C)NC(=O)C1CSC(C)C(NC(=O)C2CSCC(NC(=O)C(C)NC(=O)C(N)C(C)CC)C(=O)NC(CCCCN)C(=O)NC(Cc3ccccc3)C(=O)NC(CC(C)C)C(=O)N2)C(=O)N2CCCC2C(=O)NCC(=O)N1)C(=O)NCC(=O)NC1CSCC2NC(=O)C(Cc3ccc(O)cc3)NC(=O)C(CSC=CNC2=O)NC(=O)C(CC(N)=O)NC(=O)C(Cc2ccccc2)NC1=O (stereo not drawn)
GI50 (DLD-1): > 100 µM (inactive) | GI50 (LXFL 529): > 100 µM (inactive) | GI50 (XF498): > 100 µM (inactive) | GI50 (DMS-114): > 100 µM (inactive) | GI50 (DMS-273): 57.1 µM (inactive)

COc1ccc(/C=C(/c2ccc(OC)cc2)c2c(Cl)cc(Cl)c(/C(=C\c3ccc(OC)cc3)c3ccc(OC)cc3)c2/N=N/c2ccccc2)cc1
GI50 (T47D): > 100 µM (inactive)

Clc1sc(Cl)c2c1[C@@H](Cl)C[C@@H]2Br
GI50 (T47D): 44.7 µM (inactive)

Brc1ccc(C[N+]23CN4CN(CN(C4)C2)C3)cc1
GI50 (KM-20L2): 31.1 µM (inactive) | GI50 (DLD-1): > 10 µM (inactive) | GI50 (DMS-114): 23.6 µM (inactive) | GI50 (DMS-273): 22.5 µM (inactive)

c1ccc2c(c1)SCCCSCCSCCCS2
GI50 (T47D): > 100 µM (inactive)

CC(=O)Oc1ccc2c(-c3ccccc3)c(Oc3ccc(Cl)cc3)c(=O)oc2c1
GI50 (T47D): 6.21 µM (inactive)

CSc1c(C#N)c(N)n(-c2ccc(Cl)cc2)c(=O)c1C#N
GI50 (T47D): > 100 µM (inactive)

Cc1ccc(C(=O)O)c(/C=C2\Cc3cc(C)cc(C)c3C2=O)c1
GI50 (T47D): 46.6 µM (inactive)
